Test results from patent US20230248835A1, “COMPOUNDS, COMPOSITIONS, AND METHODS FOR THE TREATMENT OF FIBROTIC DISEASES AND CANCER” (Purdue Research Foundation, priority 2020, published 2023).

Key:
[1] = test system: human PBMC-derived M2 macrophages; assay: Reprogramming of human PBMC-derived M2 macrophages by folate-TLR7 conjugates (qPCR, ELISA); format: cell-based; conditions: increased M1 markers
Description: To evaluate the efficacy of the releasable and non-releasable conjugates, freshly isolated PBMCs were plated with monocyte attachment medium at a seeding density of 1 million cells/cm^2. This was incubated for about 2 hours at 5% CO2 and 37° C. in the incubator. Non-adherent cells were removed, and the monocytes were washed three times with warm monocyte attachment medium. The monocytes were cultured in folate deficient RPMI 1640 medium. This was differentiated into unpolarized macrophages by incubating with fresh RPMI medium containing 20 ng/mL of M-CSF supplemented with 1% penicillin streptomycin (Invitrogen, Carlsbad, Calif.) and 10% FBS.
After 3 days, the medium was replaced with fresh RPMI medium containing 20 ng/mL of M-CSF. […]
qPCR analyses were performed using the iTaq™ Universal SYBR Green SuperMix (Bio-Rad Laboratories, Inc., Hercules, Calif.; #1725121), iCycler thermocycler, and iCycler iQ 3.0 software (Bio-Rad Laboratories Inc., Hercules, Calif.) to track the expression of markers characteristic of macrophage polarization states. […] Each sample was analyzed independently in triplicate for each marker. IL-6, CXCL-10 and TNF-α protein expression in the cell culture supernatants were calculated using the commercially available ELISA kits (Biolegend, San Diego, Calif.).

[2] = test system: human PBMC-derived M2 macrophages; assay: Surface markers during macrophage polarization (flow cytometry); format: cell-based; conditions: 48 hours
Description: Human PMBC-derived M2 macrophages were treated with different concentrations of folate-TLR7 agonists (e.g., Compound 4) for 48 hours, and macrophage cells were detached using Accutase cell detachment Solution (Biolegend, San Diego, Calif.; #423201) and gently lifted with a cell scraper. Cells were washed with PBS and nonspecific binding was blocked by incubation with Fc receptor blocking solution (Biolegend, San Diego, Calif.) at room temperature for 10 minutes. The resulting single cell suspensions were stained for M2 macrophage marker CD206, and M1 macrophage markers CD80 and CD40. All the samples were then analyzed by flow cytometry.

4T1 solid tumor = 4T1 solid tumor model in mice; format: in vivo; conditions: BalB/c mice; for polarization of the macrophages from M2 to M1 phenotype in tumor: 4T1 solid tumors, flow cytometry; for tumor size: subcutaneous 4T1, intravenous, Compound 5 10 nmol/mouse, Compound 4 different concentrations
Description: In additional in vivo studies, 6-8 week old female BalB/c mice (Charles River Laboratories International, Inc., Wilmington, Mass.) were transferred upon arrival to a folic acid-deficient diet (TD.95247, Envigo Corporation, Indianapolis, Ind.). On day 14, mice were implanted subcutaneously with 5.0×10^4 of 4T1 cells and tumors were allowed to grow until they reach ˜50 mm^3. Mice were then injected intravenously with different concentrations of 100 μl of Folate-TLR7 conjugate Compounds 4 or 10 nmol/mouse of Compound 5). Control groups received 100 μl of 3% DMSO in PBS on the same schedule.
Tumor volume was concurrently measured with calipers using the formula (a×b^2)/2 (a being the largest and b being the smallest diameter of the tumor) (see FIGS. 10A, 10B, and 14). When desired, mice were sacrificed, and derived tumor fragments were dissociated using a human tumor dissociation kit. The resulting single cell suspensions were stained for antibodies and the samples were then analyzed by flow cytometry. Percentage of CD4 and CD8 T cell populations were tested in live cells isolated from 4T1 solid tumors in groups of untreated control and Folate-TLR7 conjugate treatment groups.

4T1 metastatic tumor = 4T1 metastatic tumor model, lung metastatic colony formation (6-thioguanine assay); format: in vivo; conditions: Balb/c mice, 50 nmole/kg intravenously once/week
Description: Additional 4T1 solid tumor metastatic studies were also performed. There, lung metastatic colony formation assay was carried out following the reported procedure (Cresswell et al., Folate receptor beta designates immunosuppressive tumor-associated myeloid cells that can be reprogrammed with folate-targeted drugs, Cancer Research 2021, 81(3), 671-684). 6-8 weeks old Balb/c mice were implanted with 50,000 4T1 cells in the mammary fat pad and tumors were allowed to grow until they reached ˜50 mm^3. Mice were then injected intravenously with 100 μl of Folate-TLR7 conjugate (Compound 4) (50 nmole/kg) once/week. The control group received an equal volume of PBS on the same schedule. At the end of the treatment, metastasis in lung was evaluated in disease control and treatment group by co-culturing lung-digested cells with 6-thioguanine ([…]) in complete RPMI-1640 media for 10 days in petri plates. Metastatic colonies were visualized by fixing the plates with 5 mL of methanol followed by 5 mL deionized water wash and then stained with 0.03% methylene blue (see FIG. 15C). Total blue colonies from each plate were then counted.

[3] = test system: human peripheral blood mononuclear cells (PBMCs); assay: IL-6 production in human PBMCs treated with TLR7 agonists (ELISA); format: cell-based; conditions: 24 hours, compared to control Compound A (TLR7-1), FIG. 2
Description: To evaluate the efficacy of TLR-7 agonists, Compounds 1 (TLR7-1A), 2 (TLR7-1B) and 3 (TLR7-1C) were treated with human peripheral blood mononuclear cells (PBMCs) for 24 hours and cytokine production was thereafter assessed. Human PBMCs were isolated from healthy donors by density gradient centrifugation following standard procedure. 18 mL of blood were diluted with 2% fetal bovine serum (FBS) in phosphate-buffered saline (PBS) (1:1 dilution) and transferred slowly into a 50 mL SepMate™ PBMC isolation tube containing 12 mL of Ficoll-Paque®. The tube was centrifuged at 1200 g for 10 minutes and PBMCs were transferred into a fresh 50 mL tube.
PBMCs were washed with 2×50 mL of 2% FBS in PBS and plated in 96 well plate at a density of 2×10^5 cells/200 μL RPMI medium. This was treated with different concentrations of TLR7 agonist for 24 hours.
Compound A (TLR7-1) was used as control. Cell culture supernatants were isolated and cytokine levels were calculated using an enzyme-linked immunosorbent assay (ELISA) kit (FIG. 2).

[4] = test system: human primary monocyte derived M2-macrophages; assay: Cytokine induction in human primary monocyte derived M2-macrophages; format: cell-based; conditions: 48 hours; for induction of interleukin-6 (IL-6): compared to parent compound TLR7-1, FIG. 3A; for induction of C-X-C motif chemokine ligand 10 (CXCL-10): compared to parent compound TLR7-1, FIG. 3B; for polarization of M2 macrophages to M1 macrophages: shown by increased M1 markers IL-6 and CXCL10
[5] = Systemic cytokine release in healthy mice after tail vein injection; format: in vivo; conditions: healthy Balb/c mice, 10 nmol tail vein, 1 hour or 1.5 hours after treatment
Description: Female Balb/c mice were purchased from Charles Rivers, housed in a sterile environment on a standard 12-hour light-dark cycle, and maintained on a folate-deficient diet. All animal procedures were approved by the Purdue Animal Care and Use Committee in accordance with National Institutes of Health guidelines.
Healthy mice were tail vein injected with 10 nmol Compound A (TLR7-1) or Compound 1 (TLR7-1A), and peripheral blood was collected at indicated time points after drug injection. (FIGS. 3C and 3D). The effect of drug on plasma levels of IL-6 (FIG. 3C), and tumor necrosis factor alpha (TNF-α) (FIG. 3D) was determined at 1 hour or 1.5 hours after treatment. Both Compounds A and 1 stimulated systemic cytokine release in healthy mice.

[6] = test system: mouse bone marrow-derived M2-macrophages; assay: Macrophage polarization in mouse bone marrow-derived M2 macrophages (ELISA); format: cell-based; conditions: 48 hours
Description: Bone marrow cells were isolated from tibias and femurs of male C57BL/6 mice and were differentiated to macrophages with mouse M-CSF (20 ng/mL). The macrophages were then polarized to M2 phenotype with 20 ng/mL of […] for 48 hours. Interferon-γ (IFN-γ), interleukin-4 (IL-4), and interleukin-13 (IL-13) were obtained from Biolgend (San Diego, Calif.). Lipopolysaccharide (LPS) was purchased from Sigma-Aldrich (St. Louis, Mo.).
The resulting M2 macrophages were then incubated with varying concentrations of Resiquimod, GSK2245035, Compound 1, Compound 2, and Compound 3 for 48 hours. Supernatant was harvested and cytokines were analyzed using ELISA. (Resiquimod and GSK2245035 are known TLR7 agonists.)

Compound	polarization of the macrophages from M2 to M1 phenotype in tumor (4T1 solid tumor)	tumor size (4T1 solid tumor)	expression of IL-6 in PBMCs [3]	induction of interleukin-6 (IL-6) [4]	induction of C-X-C motif chemokine ligand 10 (CXCL-10) [4]	polarization of M2 macrophages to M1 macrophages [4]	also measured
CCCCc1nc2c(N)nc3ccccc3c2n1CC(C)(C)COCCOCCOCCOCCNC(=O)CC[C@H](NC(=O)c1ccc(NCc2cnc3nc(N)[nH]c(=O)c3n2)cc1)C(=O)O [Compound 4, (S)-1-(4-amino-2-butyl-1H-imidazo[4,5-c]quinolin-1-yl)-20-(4-(((2-amino-4-oxo-3,4-dihydropteridin-6-yl)methyl)amino)benzamido)-2,2-dimethyl-17-oxo-4,7,10,13-tetraoxa-16-azahenicosan-21-oic acid]	shifted polarization of the macrophages from M2 to M1 phenotype	reduction					polarization of M2 macrophages to M1 macrophages ([1]; 3 hours or 3+45 hours, FIGS. 11A-11D): polarized the M2 macrophages to M1 macrophages; M1 surface marker CD40 ([2]; FIG. 12A): increased; M1 surface marker CD80 ([2]; FIG. 12B): increased; polarization of M2 macrophages to M1 macrophages ([2]; FIGS. 12A and 12B): polarized the M2 macrophages to M1 macrophages; number of metastatic colonies (lung) (4T1 metastatic tumor; 6-thioguanine assay, FIG. 15B-C): significantly decreased; volume of the tumor (4T1 metastatic tumor; 4T1 in mammary fat pad, FIG. 15A): significantly decreased
CCCCc1nc2c(N)nc3ccccc3c2n1CC(C)(C)N [Compound 3, 1-(2-amino-2-methylpropyl)-2-butyl-1H-imidazo[4,5-c]quinolin-4-amine]			increased	more efficiently	more efficiently	polarize the M2 macrophages to M1 macrophages	
CCCCc1nc2c(N)nc3ccccc3c2n1CC(C)(C)COC(=O)OCCSSC[C@H](NC(=O)CCOCCOCCOCCNC(=O)CC[C@H](NC(=O)c1ccc(NCc2cnc3nc(N)[nH]c(=O)c3n2)cc1)C(=O)O)C(=O)O [Compound 5]	shifted polarization of the macrophages from M2 to M1 phenotype	reduction					polarization of M2 macrophages to M1 macrophages ([1]; 3+45 hours, FIG. 9): polarized the M2 macrophages to M1 macrophages
CCCCc1nc2c(N)nc3ccccc3c2n1CC(C)(C)CO [Compound 1, 3-(4-amino-2-butyl-1H-imidazo[4,5-c]quinolin-1-yl)-2,2-dimethylpropan-1-ol]			increased	more efficiently	more efficiently	polarize the M2 macrophages to M1 macrophages	systemic cytokine release (plasma IL-6, TNF-α) [5]: stimulated; M1 marker IL-6 ([6]; supernatant ELISA, FIG. 4A): increase; M1 marker TNF-α ([6]; supernatant ELISA, FIG. 4B): increase; polarization of macrophages from M2 to M1 phenotype ([6]; varying concentrations, FIGS. 4A and 4B): efficiently polarized
CCCCc1nc2c(N)nc3ccccc3c2n1CC(C)(C)CN [Compound 2, 1-(3-amino-2,2-dimethylpropyl)-2-butyl-1H-imidazo[4,5-c]quinolin-4-amine]			increased	more efficiently	more efficiently	polarize the M2 macrophages to M1 macrophages	
